Test results reported in the NIST ThermoML archive (doi:10.1016/j.jct.2006.03.015).
± gives the expanded uncertainty stated by the source.

Test: mn = molality of the nth substance listed, in mol/kg
Details: 101 kPa, Liquid; for apparent molar heat capacity: Flow calorimetry

## CC(=O)N[C@@H](CC(N)=O)C(N)=O [(S)-2-acetamidosuccinamide] + O
288.15 K, m1 = 0.0291
  apparent molar heat capacity: 307.3 ± 27 J/K/mol
  mass density: 1000.53 ± 0.26 kg/m3
288.15 K, m1 = 0.03172
  apparent molar heat capacity: 310 ± 25 J/K/mol
  mass density: 1000.65 ± 0.26 kg/m3
288.15 K, m1 = 0.0368
  apparent molar heat capacity: 307.6 ± 23 J/K/mol
  mass density: 1000.9 ± 0.26 kg/m3
288.15 K, m1 = 0.03929
  apparent molar heat capacity: 308.2 ± 20 J/K/mol
  mass density: 1001.03 ± 0.26 kg/m3
288.15 K, m1 = 0.04222
  apparent molar heat capacity: 309.5 ± 19 J/K/mol
  mass density: 1001.17 ± 0.26 kg/m3
288.15 K, m1 = 0.04651
  apparent molar heat capacity: 305.7 ± 17 J/K/mol
  mass density: 1001.38 ± 0.26 kg/m3
288.15 K, m1 = 0.05278
  apparent molar heat capacity: 306.6 ± 17 J/K/mol
  mass density: 1001.68 ± 0.26 kg/m3
288.15 K, m1 = 0.05772
  apparent molar heat capacity: 302.8 ± 14 J/K/mol
  mass density: 1001.92 ± 0.26 kg/m3
288.15 K, m1 = 0.06036
  apparent molar heat capacity: 303.7 ± 13 J/K/mol
  mass density: 1002.04 ± 0.26 kg/m3
288.15 K, m1 = 0.06513
  apparent molar heat capacity: 306.5 ± 14 J/K/mol
  mass density: 1002.28 ± 0.27 kg/m3
288.15 K, m1 = 0.07059
  apparent molar heat capacity: 308 ± 12 J/K/mol
  mass density: 1002.54 ± 0.27 kg/m3
298.15 K, m1 = 0.02807
  apparent molar heat capacity: 333.1 ± 28 J/K/mol
  mass density: 998.384 ± 0.26 kg/m3
298.15 K, m1 = 0.03296
  apparent molar heat capacity: 329.6 ± 24 J/K/mol
  mass density: 998.617 ± 0.26 kg/m3
298.15 K, m1 = 0.0381
  apparent molar heat capacity: 333.3 ± 21 J/K/mol
  mass density: 998.865 ± 0.26 kg/m3
298.15 K, m1 = 0.04348
  apparent molar heat capacity: 330.6 ± 18 J/K/mol
  mass density: 999.124 ± 0.26 kg/m3
298.15 K, m1 = 0.04618
  apparent molar heat capacity: 330.2 ± 18 J/K/mol
  mass density: 999.246 ± 0.26 kg/m3
298.15 K, m1 = 0.05136
  apparent molar heat capacity: 330.7 ± 16 J/K/mol
  mass density: 999.495 ± 0.26 kg/m3
298.15 K, m1 = 0.05666
  apparent molar heat capacity: 333.4 ± 19 J/K/mol
  mass density: 999.741 ± 0.26 kg/m3
298.15 K, m1 = 0.06197
  apparent molar heat capacity: 330.9 ± 14 J/K/mol
298.15 K, m1 = 0.06198
  apparent molar heat capacity: 333 ± 14 J/K/mol
  mass density: 999.991 ± 0.26 kg/m3
298.15 K, m1 = 0.06667
  apparent molar heat capacity: 332.5 ± 12 J/K/mol
  mass density: 1000.22 ± 0.26 kg/m3
298.15 K, m1 = 0.07247
  apparent molar heat capacity: 331 ± 11 J/K/mol
  mass density: 1000.49 ± 0.26 kg/m3
313.15 K, m1 = 0.03215
  apparent molar heat capacity: 353.5 ± 27 J/K/mol
  mass density: 993.709 ± 0.28 kg/m3
313.15 K, m1 = 0.03777
  apparent molar heat capacity: 356 ± 23 J/K/mol
  mass density: 993.972 ± 0.28 kg/m3
313.15 K, m1 = 0.04273
  apparent molar heat capacity: 355.6 ± 20 J/K/mol
  mass density: 994.186 ± 0.28 kg/m3
313.15 K, m1 = 0.04501
  apparent molar heat capacity: 361.1 ± 19 J/K/mol
  mass density: 994.291 ± 0.28 kg/m3
313.15 K, m1 = 0.0481
  apparent molar heat capacity: 358.6 ± 18 J/K/mol
  mass density: 994.444 ± 0.28 kg/m3
313.15 K, m1 = 0.05166
  apparent molar heat capacity: 353.7 ± 17 J/K/mol
  mass density: 994.598 ± 0.28 kg/m3
313.15 K, m1 = 0.05423
  apparent molar heat capacity: 357.7 ± 18 J/K/mol
  mass density: 994.726 ± 0.27 kg/m3
313.15 K, m1 = 0.06055
  apparent molar heat capacity: 358.6 ± 15 J/K/mol
  mass density: 995.006 ± 0.27 kg/m3
313.15 K, m1 = 0.06612
  apparent molar heat capacity: 356.4 ± 14 J/K/mol
  mass density: 995.264 ± 0.27 kg/m3
313.15 K, m1 = 0.07077
  apparent molar heat capacity: 355.6 ± 14 J/K/mol
  mass density: 995.471 ± 0.27 kg/m3
313.15 K, m1 = 0.07187
  apparent molar heat capacity: 357.7 ± 13 J/K/mol
  mass density: 995.524 ± 0.27 kg/m3
328.15 K, m1 = 0.03205
  apparent molar heat capacity: 378.3 ± 30 J/K/mol
  mass density: 987.15 ± 0.3 kg/m3
328.15 K, m1 = 0.03805
  apparent molar heat capacity: 377.4 ± 25 J/K/mol
  mass density: 987.418 ± 0.3 kg/m3
328.15 K, m1 = 0.0428
  apparent molar heat capacity: 373.4 ± 22 J/K/mol
  mass density: 987.633 ± 0.3 kg/m3
328.15 K, m1 = 0.04683
  apparent molar heat capacity: 379.4 ± 21 J/K/mol
  mass density: 987.812 ± 0.3 kg/m3
328.15 K, m1 = 0.05183
  apparent molar heat capacity: 377.2 ± 22 J/K/mol
  mass density: 988.042 ± 0.29 kg/m3
328.15 K, m1 = 0.05694
  apparent molar heat capacity: 380.7 ± 21 J/K/mol
  mass density: 988.263 ± 0.29 kg/m3
328.15 K, m1 = 0.06115
  apparent molar heat capacity: 377.1 ± 17 J/K/mol
  mass density: 988.455 ± 0.29 kg/m3
328.15 K, m1 = 0.06488
  apparent molar heat capacity: 376.5 ± 15 J/K/mol
  mass density: 988.623 ± 0.29 kg/m3
328.15 K, m1 = 0.06958
  apparent molar heat capacity: 380.2 ± 17 J/K/mol
  mass density: 988.834 ± 0.29 kg/m3
